Reference: US20220241266A1, “COMPOSITIONS AND METHODS USING TRIGONELLINE AND HIGH PROTEIN FOR PREVENTING OR TREATING CONDITIONS OR DISORDERS IN SKELETAL MUSCLE” (SOCIETE DES PRODUITS NESTLE S.A., priority 2019, published 2022)

Legend:
[1] = test system: Human Skeletal Muscle Myotubes (HSMM); assay: Colorimetric NAD+ quantification in differentiated human primary myoblasts; assay type: cell-based; conditions: 16 h, different doses
Description: After one day, the differentiation is induced by a medium change for 4 days. Cells were treated with synthetic trigonelline monohydrate (FIG. 4A) or with Fenugreek seed extract enriched in trigonelline containing 40.45% trigonelline (FIG. 4B) for 16 h at difference doses. NAD^+ was measured using colorimetric NAD^+ quantification assay (Biovision NAD^+/NADH Quantitation Colorimetric Kit #k337-100).

C57BL/6JRj male mice = assay: Liver NAD+ in mice after oral gavage; assay type: in vivo; conditions: equimolar of 300 mg/kg trigonelline, 120 minutes
Description: FIG. 5—Liver NAD^+ levels of C57BL/6JRj mice measured 120 minutes after administration of 300 mg/kg trigonelline chloride or an equimolar amount of fenugreek seed extract by oral gavage
10 weeks C57BL/6JRj male mice received trigonelline (sigma #T5509) or fenugreek seed extract enriched in trigonelline (40.45% trigonelline) by oral gavage (equimolar of 300 mg/kg trigonelline, n=8/group). After 120 minutes treatment, the liver was harvested and flash frozen in liquid nitrogen. NAD^+ was measured in liver using an enzymatic method adapted from Dall, M., et al., Mol Cell Endocrinol, 2018. 473: p. 245-256.

[2] = test system: Human Skeletal Muscle Myotubes (HSMM); conditions: 6 h, 500 μm
Description: Human primary myoblasts from two different donors were seeded in 6 well plates at a density of 200,000 cells per well in skeletal muscle growth medium (SKM-M, AMSbio). After one day, the differentiation was induced by a medium change for 4 days using differentiation culture medium (Gibco No. 31330-028). Cells were treated with isotopically labelled trigonelline (^13C carbonyl; 3^2H on methyl) for 6 h.
Cell extracts were separated on a Vanquish UHPLC+focused LC system (Thermo Scientific) with a hydrophilic liquid chromatography (HILIC) iHILIC-Fusion(P) column (Hilicon) carrying the dimensions 150×2.1 mm, 5 μm and a guard column (iHILIC-fusion(P), Hilicon) in front. The separation of metabolites was achieved by applying a linear solvent gradient in normal phase at 0.25 mL/min flow rate and 35° C. of temperature. As mobile phase, solvent A was water with 10 mM ammonium acetate and 0.04% (v/v) ammonium hydroxide, pH ˜9.3, and solvent B was acetonitrile.
The eluting metabolites were analyzed with an Orbitrap Fusion Lumos mass spectrometer (Thermo Scientific) with a heated electrospray ionization (H-ESI) source in positive and negative mode at a resolution of 60,000 at m/z of 200. Instrument control and data analysis were conducted using Xcalibur (Thermo Scientific).

C. elegans [3] = conditions: 1 mM, chronic exposure from Day 1 adulthood
Description: Worm lifespan tests were performed using about 100 animals per condition and scored manually every other day. Trigonelline treatment and experimental measurements were started at Day 1 of wild type N2 worm adulthood, in a regimen of chronic exposure till experiments termination.

C. elegans [4] = conditions: 1 mM, vs control
Description: C. elegans mobility test was performed using the Movement Tracker software (Mouchiroud, L. et al. Curr Protoc Neurosci 77, 8.37.1-8.37.21 (2016)). The experiments were repeated at least twice. Trigonelline treatment and experimental measurements were started at Day 1 of wild type N2 worm adulthood, in a regimen of chronic exposure till experiments termination.

C. elegans [5] = conditions: 1 mM, day 8 and day 11 old worms, vs control
Source text: 45 to 60 worms per condition were manually scored for mobility after poking. Worms that were unable to respond to any repeated stimulation were scored as dead. […] Trigonelline treatment and experimental measurements were started at Day 1 of wild type N2 worm adulthood, in a regimen of chronic exposure till experiments termination.

C. elegans [6] = conditions: 1 mM trigonelline chloride, day 8 old worms, vs control
Description: Absolute quantification of the mtDNA copy number in wild type N2 worms was performed by real-time PCR. Relative values for nduo-1, and act-1 were compared within each sample to generate a ratio representing the relative level of mitochondrial DNA per nuclear genome. The average of at least two technical repeats was used for each biological data point. Each experiment was performed on at least ten independent biological samples (individual worms). Trigonelline treatment with 1 mM trigonelline chloride and experimental measurements were started at Day 1 of wild type N2 worm adulthood, in a regimen of chronic exposure till experiments termination.

[7] = test system: RW1596 (myo-3p::GFP) worms; conditions: 1 mM trigonelline chloride, 11 day old worms vs age matched control
Description: RW1596 (myo-3p::GFP) worms were collected at Day 1 (young adults) and at Day 11 (aged animals) for muscle integrity assessment. Worms were immobilized with tetramisole and analyzed by confocal microscopy, to assess the muscle fibers morphology shown by GFP fluorescence imaging. Trigonelline treatment with 1 mM trigonelline chloride and experimental measurements were started at Day 1 of wild type N2 worm adulthood, in a regimen of chronic exposure till experiments termination.

With `C[n+]1cccc(C(=O)[O-])c1` [chemically synthesized trigonelline, trigonelline monohydrate] the “NAD+ content compared to the control” value [1] was “significant increase in NAD^+ content” and the “NAD+ content in the liver compared to the control” value (C57BL/6JRj male mice) was “significant increase in NAD^+ content in the liver”.

With `[2H]C([2H])([2H])[n+]1cccc([13C](=O)[O-])c1` [labelled trigonelline] the “relative abundance of labelled NAD+ (M+1)” value ([2]; HSMM, vs naturally occurring NAD+ control) was “increase in relative abundance of labelled NAD+ (M+1)”.

In the case of `C[n+]1cccc(C(=O)O)c1.[Cl-]` [trigonelline chloride], the increase of lifespan (C. elegans [3]) is reported as 21%, the “distance travelled during spontaneous mobility assay” value (C. elegans [4]; advanced aging phase) is reported as “significantly increased” and the “mean speed during spontaneous mobility assay” value (C. elegans [4]; from day 1 adulthood) is reported as “increased the mean speed compared to the control”. The “stimulated mobility score (worms responsive to a physical stimulus)” value (C. elegans [5]) was “more responsive to a physical stimulus than the control”.

In the case of `C[n+]1cccc(C(=O)[O-])c1` [trigonelline, 1-methylpyridin-1-ium-3-carboxylate], the “ratio of mitochondrial-encoded gene (nduo-1) to nuclear-encoded gene (act-1)” value (C. elegans [6]) is reported as “higher than in the control group”, the “NAD+ relative concentration relative to control (LC-MS)” value ([2]; HSMM from 2 donors) is reported as “enhancement of NAD+” and the “myofibrillar structure (GFP-tagged myosin)” value [7] is reported as “improved more organized myofibrillar structure”.
